Patent US9834541B2, “2-aminopyridine compounds” (Merck Patent GmbH, priority 2012, dated 2017)

Assays:
Wnt pathway [1] = assay: Cellular assay for Wnt pathway activity, LS174T-shl-fLuc clone 5 (LS174T-L5) luciferase reporter assay; assay type: cell-based; settings: Homo sapiens; LS174T TCF luciferase reporter cells, 24 hours incubation
In short: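 LS174T human colon cancer cells stably carrying a 16×TCF/LEF-driven short-half-life firefly luciferase reporter were treated with compounds at 30 μM to 1 nM for 24 hours. Luciferase luminescence normalized to vehicle control; IC50 from curve fitting.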

[2] = CLint (intrinsic clearance) assay, liver microsomal incubation; assay type: in vitro ADME, human; settings: for microsomal CLint at 0.8 μM: liver microsomes, pH 7.4, human hepatic microsomes, 0.5 mg/mL protein, class symbols
In short: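 Human liver microsomes (0.5 mg/mL protein) in 0.1 M potassium phosphate pH 7.4 with 1 mM MgCl2 were incubated at 37 °C with NADPH and compound (diluted to 0.8 μM), with no-cofactor controls. Samples were acetonitrile-quenched at 0–30 min. CLint (μL/min/mg protein) = k·1000/protein concentration, from the LC-MS/MS peak-area decline slope.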

Wnt pathway [3] = settings: see Table A on page 93 of WO 2010/041054; cited from earlier work

## CC(C)n1cc(-c2ccc(-c3cnc(N)c(C(F)(F)F)c3N3CCC4(CC3)CNC(=O)O4)cc2)cn1 [Compound 54, 8-{2-Amino-5-[4-(1-isopropyl-1H-pyrazol-4-yl)-phenyl]-3-trifluoro-methyl-pyridin-4-yl}-1-oxa-3,8-diaza-spiro[4.5] decan-2-one]
Wnt pathway [1]
  IC50: 0.088 µM
[2]
  microsomal CLint at 0.8 μM: 10 to 50 µL/min/mg

## Cn1ncc2ccc(-c3cnc(N)c(Cl)c3N3CCC4(CC3)CNC(=O)O4)cc21 [Compound 20, 8-[2-Amino-3-chloro-5-(1-methyl-1H-indazol-6-yl)-pyridin-4-yl]-1-oxa-3,8-diaza-spiro[4.5] decan-2-one]
Wnt pathway [1]
  IC50: 0.054 µM
[2]
  microsomal CLint at 0.8 μM: 10 to 50 µL/min/mg

## CN1c2ccc(-c3cnc(N)c(Cl)c3N3CC[C@H](C#N)[C@@H](O)C3)cc2CS1(=O)=O (racemic) [Compound 57, Racemic trans-2′-amino-3′-chloro-3-hydroxy-5′-(1-methyl-2,2-dioxo-2,3-dihydro-1H-2l6-benzo[c]isothiazol-5-yl)-3,4,5,6-tetrahydro-2H-[1,4′]bipyridinyl-4-carbonitrile]
Wnt pathway [1]
  IC50: 0.0286 µM
[2]
  microsomal CLint at 0.8 μM: 10 to 50 µL/min/mg

## CN1c2ccc(-c3cnc(N)c(F)c3N3CCC4(CC3)CNC(=O)O4)cc2CS1(=O)=O [Compound 60, 8-[2-Amino-3-fluoro-5-(1-methyl-2,2-dioxo-2,3-dihydro-1H-2l6-benzo[c]isothiazol-5-yl)-pyridin-4-yl]-1-oxa-3,8-diaza-spiro[4.5]decan-2-one]
Wnt pathway [1]
  IC50: 0.103 µM
[2]
  microsomal CLint at 0.8 μM: < 10 µL/min/mg

## CN1c2ccc(-c3cnc(N)c(Cl)c3N3CCC4(CC3)NCCNC4=O)cc2CS1(=O)=O [Compound 46, 9-[2-Amino-3-chloro-5-(1-methyl-2,2-dioxo-2,3-dihydro-1H-2I6-benzo[c]isothiazol-5-yl)-pyridin-4-yl]-1,4,9-triaza-spiro[5.5] undecan-5-one]
Wnt pathway [1]
  IC50: 0.15 µM
[2]
  microsomal CLint at 0.8 μM: 50 to 100 µL/min/mg

## Nc1ncc(-c2ccc(-c3cnn(CCO)c3)cc2)c(N2CCC3(CC2)CNC(=O)O3)c1Cl [Compound 34, 8-(2-Amino-3-chloro-5-{4-[1-(2-hydroxy-ethyl)-1H-pyrazol-4-yl]-phenyl}-pyridin-4-yl)-1-oxa-3,8-diaza-spiro[4.5] decan-2-one]
Wnt pathway [1]
  IC50: 0.37 µM
[2]
  microsomal CLint at 0.8 μM: 10 to 50 µL/min/mg

## CCn1ncc2ccc(-c3cnc(N)c(Cl)c3N3CCC4(CCNC4=O)CC3)cc21 [Compound 71, 8-[2-Amino-3-chloro-5-(1-ethyl-1H-indazol-6-yl)-pyridin-4-yl]-2,8-diaza-spiro[4.5] decan-1-one]
Wnt pathway [1]
  IC50: 0.181 µM
[2]
  microsomal CLint at 0.8 μM: 10 to 50 µL/min/mg

## Nc1ncc(-c2ccc(N3CCOCC3)cc2)c(N2CCC3(CCNC3=O)CC2)c1Cl [Compound 18, 8-[2-Amino-3-chloro-5-(4-morpholin-4-yl-phenyl)-pyridin-4-yl]-2,8-diaza-spiro[4.5] decan-1-one]
Wnt pathway [1]
  IC50: 0.12 µM
[2]
  microsomal CLint at 0.8 μM: 50 to 100 µL/min/mg

## O=C1NCCC12CCN(c1c(Cl)cncc1-c1ccccc1)CC2 [Compound E60, 8-(3-Chloro-5-phenyl-pyridin-4-yl)-2,8-diaza-spiro[4.5]decan-1-one, reference compound]
Wnt pathway [1]
  IC50: 0.23 µM
[2]
  microsomal CLint at 0.8 μM: ≥ 150 µL/min/mg
[2]; statement in the related-art section
  human hepatic microsomal intrinsic clearance (CLint), in words: high
Wnt pathway [3]
  inhibitory activity, in words: promising

## Cn1cc(-c2ccc(-c3cnc(N)c(Cl)c3N3CCC4(CC3)C(=O)Nc3ccccc34)cc2)cn1 [Compound 11, 1′-(2-Amino-3-chloro-5-(4-(1-methyl-1H-pyrazol-4-yl)phenyl)pyridin-4-yl)spiro[indoline-3,4′-piperidin]-2-one]
Wnt pathway [1]
  IC50: 0.003 µM
[2]
  microsomal CLint at 0.8 μM: 10 to 50 µL/min/mg

## Nc1ncc(-c2ccc3c(N)n[nH]c3c2)c(N2CCC3(CC2)NC(=O)NC3=O)c1Cl [Compound 5, 8-[2-Amino-5-(3-amino-1H-indazol-6-yl)-3-chloro-pyridin-4-yl]-1,3,8-triaza-spiro[4.5] decane-2,4-dione]
Wnt pathway [1]
  IC50: 1.5 µM
[2]
  microsomal CLint at 0.8 μM: < 10 µL/min/mg

## Cn1ncc2cc(-c3cnc(N)c(C(F)(F)F)c3N3CCC4(CC3)CC(=O)NC4=O)ccc21 [Compound 49, 8-[2-Amino-5-(1-methyl-1H-indazol-5-yl)-3-trifluoromethyl-pyridin-4-yl]-2,8-diaza-spiro[4.5] decane-1,3-dione]
Wnt pathway [1]
  IC50: 0.004 µM
[2]
  microsomal CLint at 0.8 μM: 10 to 50 µL/min/mg

## CC(C)(O)Cn1cc(-c2ccc(-c3cnc(N)c(Cl)c3N3CCC4(CCNC4=O)CC3)cc2)cn1 [Compound 67, 8-(2-Amino-3-chloro-5-{4-[1-(2-hydroxy-2-methyl-propyl)-1H-pyrazol-4-yl]-phenyl}-pyridin-4-yl)-2,8-diaza-spiro[4.5] decan-1-one]
Wnt pathway [1]
  IC50: 0.049 µM
[2]
  microsomal CLint at 0.8 μM: 10 to 50 µL/min/mg

## CN1c2ccc(-c3cnc(N)c(Cl)c3N3CCC4(CC3)CNC(=O)O4)cc2CS1(=O)=O [Compound 4, 8-[2-Amino-3-chloro-5-(1-methyl-2,2-dioxo-2,3-dihydro-1H-2I6-benzo[c]isothiazol-5-yl)-pyridin-4-yl]-1-oxa-3,8-diaza-spiro[4.5] decan-2-one]
Wnt pathway [1]
  IC50: 0.038 µM
[2]
  microsomal CLint at 0.8 μM: < 10 µL/min/mg

## CC(C)n1cc(-c2ccc(-c3cnc(N)c(Cl)c3N3CCC4(CCNC4=O)CC3)cc2)cn1 [Compound 69, 8-{2-Amino-3-chloro-5-[4-(1-isopropyl-1H-pyrazol-4-yl)-phenyl]-pyridin-4-yl}-2,8-diaza-spiro[4.5] decan-1-one]
Wnt pathway [1]
  IC50: 0.052 µM
[2]
  microsomal CLint at 0.8 μM: 50 to 100 µL/min/mg

## Cn1ccc(-c2ccc(-c3cnc(N)c(Cl)c3N3CCC4(CCNC4=O)CC3)cc2)n1 [Compound 22, 8-(2-Amino-3-chloro-5-(4-(1-methyl-1H-pyrazol-3-yl)phenyl)pyridin-4-yl)-2,8-diazaspiro[4.5]decan-1-one]
Wnt pathway [1]
  IC50: 0.038 µM
[2]
  microsomal CLint at 0.8 μM: 10 to 50 µL/min/mg

## Nc1ccc(-c2ccc(-c3cnc(N)c(Cl)c3N3CCC4(CCNC4=O)CC3)cc2)cn1 [Compound 28, 8-{2-Amino-5-[4-(6-amino-pyridin-3-yl)-phenyl]-3-chloro-pyridin-4-yl}-2,8-diaza-spiro[4.5] decan-1-one]
Wnt pathway [1]
  IC50: 0.012 µM
[2]
  microsomal CLint at 0.8 μM: ≥ 150 µL/min/mg
